Patent US12428403B2, “N-(heterocyclyl and heterocyclylalkyl)-3-benzylpyridin-2-amine derivatives as SSTR4 agonists” (Takeda Pharmaceutical Company Limited, priority 2020, dated 2025)

Assays:
SSTR1 = SSTR1 (Homo sapiens, UniProt P30872); assay: biochemical;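 also: competitive binding to membranes of CHO-K1 cells overexpressing SSTR1, incubated 60 min at room temperature, radioactivity read by scintillation counting after filtration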
Procedure: SSTR1 I-125 Somatostatin Competition Binding Assay for Selectivity Versus SSTR1
Membranes from CHO-K1 cells overexpressing SSTR1 are purchased from Perkin Elmer (catalog number ES-520-M400UA). Test compounds are suspended in DMSO and then diluted in assay buffer (25 mM HEPES pH 7.4, 10 mM MgCl2, 1 mM CaCl2, 0.5% BSA) plus 0.4 nM I-125 labeled somatostatin (Perkin Elmer catalog number NEX389). […] Then 10 μg of SSTR1 membranes in 50 μL assay buffer are added per well. The plate is incubated for 60 minutes at room temperature. […] The contents of the assay plate are transferred to filters with a TomTech harvester and washed 5 times with 20 mM HEPES, 100 mM NaCl. […] The scintillator sheets are melted to the filters using a heat block. The filters are then read in a MicroBeta scintillation counter. Binding Ki curves are generated using Activity Base for Screening Data Management and the results are reported as pIC50.

SSTR4 [1] = target: T1, SSTR4 (Homo sapiens, UniProt P31391); assay: SSTR4 I-125 somatostatin competition binding assay (CHO-K1 membranes); parameters: host or cells: CHO-K1; settings: competition with I-125 labeled somatostatin, membranes from CHO-K1 overexpressing SSTR4; read-out: SSTR4 Binding pIC50 (converted)
Text: SSTR4I-125 Somatostatin Competition Binding Assay
Membranes from CHO-K1 cells overexpressing SSTR4 are purchased from Perkin Elmer (catalog number ES-524-M400UA). […] The scintillator sheets are melted to filters using a heat block.

SSTR4 [2] = target: T1, SSTR4; assay: cell-based
Procedure: This cell-based assay measures the ability of compounds to inhibit forskolin stimulated cAMP in CHO-K1 cells overexpressing SSTR4. CHO-K1 cells overexpressing SSTR4 (CHO-SSTR4) are purchased from DiscoveRx (product code 95-0059C2). The CHO-SSTR4 cells are maintained in F12K media with 10% Fetal Bovine Serum (Hyclone), 1% Pen/Strep (Life Technologies), and 800 μg/mL G418 (Life Technologies). To perform the assay, 3000 cells are plated per well in white 384-well plate (Corning 3570) in 50 complete media and the cells are allowed to attach for 16 hours in a 37° C., 5% CO2 incubator. The next day, the culture media is removed from the cells and the cells are washed (added then removed) with Krebs Ringer Buffer (ZenBio, KRB-1000 mL). Test compounds are suspended in DMSO and diluted in stimulation buffer: Krebs Ringer Buffer plus 0.5% BSA (Roche), 300 μM IBMX (Sigma), and 350 nM forskolin (Sigma). The cells are incubated in 10 μL compound/stimulation buffer for 30 minutes at room temperature. Cellular cAMP levels are detected with a HTRF LANCE Ultra cAMP kit (Perkin Elmer, catalog number TRF0264).
The assay is performed in accordance with the manufacturer's instructions. Five μL of diluted Eu-W8044 labeled streptavidin (dilution: 1:50 in cAMP Detection Buffer) is added to each well. Then 5 μL of diluted biotin cAMP (dilution: 1:150 in cAMP Detection Buffer) is added to each well. The plates are covered and allowed to incubate for 60 minutes at room temperature on a shaker. HTRF (665 nm/615 nm) is read on a Perkin Elmer ENVISION plate reader. The pEC50 values are generated using Activity Base for Screening Data Management.
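For EC50 in this document: CHO-K1 cells overexpressing SSTR4, reduction of forskolin-driven cAMP after 30 min compound exposure at room temperature, cAMP read by HTRF LANCE Ultra kit.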

Chain of SSTR1 (P30872 whole entry): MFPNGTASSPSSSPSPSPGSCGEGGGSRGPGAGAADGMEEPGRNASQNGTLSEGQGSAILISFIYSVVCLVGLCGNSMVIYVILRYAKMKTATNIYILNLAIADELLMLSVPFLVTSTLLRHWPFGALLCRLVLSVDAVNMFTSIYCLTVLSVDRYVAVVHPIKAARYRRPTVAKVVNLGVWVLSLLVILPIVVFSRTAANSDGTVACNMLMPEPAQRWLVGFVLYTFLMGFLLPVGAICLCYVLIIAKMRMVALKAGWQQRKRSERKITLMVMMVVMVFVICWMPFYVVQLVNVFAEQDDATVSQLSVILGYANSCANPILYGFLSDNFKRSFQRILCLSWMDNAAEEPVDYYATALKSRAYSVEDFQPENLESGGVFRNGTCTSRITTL
T1 sequence (P31391 whole entry): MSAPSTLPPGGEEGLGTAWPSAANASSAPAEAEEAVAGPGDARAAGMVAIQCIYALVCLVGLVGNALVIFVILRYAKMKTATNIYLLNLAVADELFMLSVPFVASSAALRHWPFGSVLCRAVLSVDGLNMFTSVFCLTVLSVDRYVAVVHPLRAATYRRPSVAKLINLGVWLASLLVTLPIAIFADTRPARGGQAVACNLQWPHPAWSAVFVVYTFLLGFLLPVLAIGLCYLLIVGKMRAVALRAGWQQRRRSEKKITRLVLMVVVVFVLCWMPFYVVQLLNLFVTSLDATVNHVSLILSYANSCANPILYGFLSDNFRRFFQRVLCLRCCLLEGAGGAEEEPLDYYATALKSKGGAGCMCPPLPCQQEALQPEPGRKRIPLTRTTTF

Work on `Cc1nc(NCCN2CCCC2)c(C(C)c2ccc(F)cc2)nc1C(=O)NCCF` (stereo not drawn) [Example 51, N-(2-fluoroethyl)-6-(1-(4-fluorophenyl)ethyl)-3-methyl-5-((2-(pyrrolidin-1-yl)ethyl)amino)pyrazine-2-carboxamide] yielded an IC50 (SSTR1) of 81.3 nM, an IC50 (SSTR4 [1]) of 18.2 nM and an EC50 (SSTR4 [2]) of 3.09 nM.
Molecule `COCCNC(=O)c1nc(C(C)c2ccc(F)cc2)c(NCCN2CCCC2)nc1C` (stereo not drawn) [Example 52, 6-(1-(4-fluorophenyl)ethyl)-N-(2-methoxyethyl)-3-methyl-5-((2-(pyrrolidin-1-yl)ethyl)amino)pyrazine-2-carboxamide] has an IC50 (SSTR1) of 1620 nM, an IC50 (SSTR4 [1]) of 16.2 nM and an EC50 (SSTR4 [2]) of 1.86 nM.
`Cc1nc(NCCN2CCCC2)c(C(C)c2ccc(F)cc2)nc1C(=O)N1CCC(F)(F)C1` (stereo not drawn) [Example 60, (3,3-difluoropyrrolidin-1-yl)(6-(1-(4-fluorophenyl)ethyl)-3-methyl-5-((2-(pyrrolidin-1-yl)ethyl)amino)pyrazin-2-yl)methanone] was tested, and the IC50 (SSTR1) was 1580 nM, the IC50 (SSTR4 [1]) was 40.7 nM and the EC50 (SSTR4 [2]) was 4.9 nM.
With `Cc1nc(NCCN2CCCC2)c(C(C)c2ccc(F)cc2)nc1C(=O)N[C@@H]1CCOC1` (stereo partly drawn) [Example 61, 6-(1-(4-fluorophenyl)ethyl)-3-methyl-5-((2-(pyrrolidin-1-yl)ethyl)amino)-N-((R)-tetrahydrofuran-3-yl)pyrazine-2-carboxamide] the IC50 (SSTR1) was 1510 nM, the IC50 (SSTR4 [1]) was 20.4 nM and the EC50 (SSTR4 [2]) was 15.8 nM.
`Cc1nc(NCCN2CCCC2)c(C(C)c2ccc(F)cc2)nc1C(=O)NC1CC1` (stereo not drawn) [Example 62, N-cyclopropyl-6-(1-(4-fluorophenyl)ethyl)-3-methyl-5-((2-(pyrrolidin-1-yl)ethyl)amino)pyrazine-2-carboxamide] was tested, and the IC50 (SSTR1) was 1410 nM, the IC50 (SSTR4 [1]) was 14.5 nM and the EC50 (SSTR4 [2]) was 4.27 nM.
In the case of `CCN(C)C(=O)c1nc(C(C)c2ccc(F)cc2)c(NCCN2CCCC2)nc1C` (stereo not drawn) [Example 63, N-ethyl-6-(1-(4-fluorophenyl)ethyl)-N,3-dimethyl-5-((2-(pyrrolidin-1-yl)ethyl)amino)pyrazine-2-carboxamide], the IC50 (SSTR1) is reported as 5370 nM, the IC50 (SSTR4 [1]) is reported as 18.2 nM and the EC50 (SSTR4 [2]) is reported as 1.35 nM.
In the case of `Cc1nc(NCCN2CCCC2)c(C(C)c2ccc(F)cc2)nc1C(=O)N[C@H]1C[C@@H](F)C1` (stereo partly drawn) [Example 64, N-(cis-3-fluorocyclobutyl)-6-(1-(4-fluorophenyl)ethyl)-3-methyl-5-((2-(pyrrolidin-1-yl)ethyl)amino)pyrazine-2-carboxamide], the IC50 (SSTR1) is reported as 1260 nM, the IC50 (SSTR4 [1]) is reported as 33.9 nM and the EC50 (SSTR4 [2]) is reported as 13.8 nM.
For `Cc1nc(NCCN2CCCC2)c(C(C)c2ccc(F)cc2)nc1C(=O)N(C)C1CC1` (stereo not drawn) [Example 65, N-cyclopropyl-6-(1-(4-fluorophenyl)ethyl)-N,3-dimethyl-5-((2-(pyrrolidin-1-yl)ethyl)amino)pyrazine-2-carboxamide], the IC50 (SSTR1) was 3390 nM, the IC50 (SSTR4 [1]) was 17 nM and the EC50 (SSTR4 [2]) was 1.62 nM.
`Cc1nc(NCCN2CCCC2)c(C(C)c2ccc(F)cc2)nc1C(=O)N1CC[C@H](F)C1` (stereo partly drawn) [Example 66, (6-(1-(4-fluorophenyl)ethyl)-3-methyl-5-((2-(pyrrolidin-1-yl)ethyl)amino)pyrazin-2-yl)((S)-3-fluoropyrrolidin-1-yl)methanone] was tested, and the IC50 (SSTR1) was 3470 nM, the IC50 (SSTR4 [1]) was 36.3 nM and the EC50 (SSTR4 [2]) was 4.17 nM.
`Cc1nc(NCCN2CCCC2)c(C(C)c2ccc(F)cc2)nc1C(=O)N(C)C(C)C` (stereo not drawn) [Example 67, 6-(1-(4-fluorophenyl)ethyl)-N-isopropyl-N,3-dimethyl-5-((2-(pyrrolidin-1-yl)ethyl)amino)pyrazine-2-carboxamide] showed an IC50 (SSTR1) of 3630 nM, an IC50 (SSTR4 [1]) of 10 nM and an EC50 (SSTR4 [2]) of 1.7 nM.
`CO[C@H]1CCN(C(=O)c2nc(C(C)c3ccc(F)cc3)c(NCCN3CCCC3)nc2C)C1` (stereo partly drawn) [Example 68, (6-(1-(4-fluorophenyl)ethyl)-3-methyl-5-((2-(pyrrolidin-1-yl)ethyl)amino)pyrazin-2-yl)((S)-3-methoxypyrrolidin-1-yl)methanone] showed an IC50 (SSTR1) of 3550 nM, an IC50 (SSTR4 [1]) of 31.6 nM and an EC50 (SSTR4 [2]) of 0.676 nM.
For `Cc1nc(NCCN2CCCC2)c(C(C)c2ccc(F)cc2)nc1C(=O)N[C@H]1CCOC1` (stereo partly drawn) [Example 69, 6-(1-(4-fluorophenyl)ethyl)-3-methyl-5-((2-(pyrrolidin-1-yl)ethyl)amino)-N-((S)-tetrahydrofuran-3-yl)pyrazine-2-carboxamide], the IC50 (SSTR1) was 2400 nM, the IC50 (SSTR4 [1]) was 135 nM and the EC50 (SSTR4 [2]) was 8.71 nM.
With `CO[C@H]1C[C@H](NC(=O)c2nc(C(C)c3ccc(F)cc3)c(NCCN3CCCC3)nc2C)C1` (stereo partly drawn) [Example 71, 6-(1-(4-fluorophenyl)ethyl)-N-(trans-3-methoxycyclobutyl)-3-methyl-5-((2-(pyrrolidin-1-yl)ethyl)amino)pyrazine-2-carboxamide] the IC50 (SSTR1) was 2450 nM, the IC50 (SSTR4 [1]) was 31.6 nM and the EC50 (SSTR4 [2]) was 4.27 nM.
Work on `CO[C@@H]1CCN(C(=O)c2nc(C(C)c3ccc(F)cc3)c(NCCN3CCCC3)nc2C)C1` (stereo partly drawn) [Example 72, (6-(1-(4-fluorophenyl)ethyl)-3-methyl-5-((2-(pyrrolidin-1-yl)ethyl)amino)pyrazin-2-yl)((R)-3-methoxypyrrolidin-1-yl)methanone] yielded an IC50 (SSTR1) of 4790 nM, an IC50 (SSTR4 [1]) of 64.6 nM and an EC50 (SSTR4 [2]) of 3.39 nM.
Work on `Cc1nc(NCCN2CCCC2)c(C(C)c2ccc(F)cc2)nc1C(=O)NC1CC(F)(F)C1` (stereo not drawn) [Example 73, N-(3,3-difluorocyclobutyl)-6-(1-(4-fluorophenyl)ethyl)-3-methyl-5-((2-(pyrrolidin-1-yl)ethyl)amino)pyrazine-2-carboxamide] yielded an IC50 (SSTR1) of 1100 nM, an IC50 (SSTR4 [1]) of 47.9 nM and an EC50 (SSTR4 [2]) of 9.77 nM.
`Cc1nc(NCCN2CCCC2)c(C(C)c2ccc(F)cc2)nc1C(=O)N1CC[C@@H](F)C1` (stereo partly drawn) [Example 74, (6-(1-(4-fluorophenyl)ethyl)-3-methyl-5-((2-(pyrrolidin-1-yl)ethyl)amino)pyrazin-2-yl)((R)-3-fluoropyrrolidin-1-yl)methanone] was tested, and the IC50 (SSTR1) was 4370 nM, the IC50 (SSTR4 [1]) was 63.1 nM and the EC50 (SSTR4 [2]) was 3.24 nM.
In the case of `Cc1nc(Cc2ccc(F)cc2)c(NCCN2CCC2)nc1C` [Example 78, N-(2-(azetidin-1-yl)ethyl)-3-(4-fluorobenzyl)-5,6-dimethylpyrazin-2-amine], the IC50 (SSTR1) is reported as 28200 nM, the IC50 (SSTR4 [1]) is reported as 77.6 nM and the EC50 (SSTR4 [2]) is reported as 12.6 nM.
In the case of `Cc1cccc(Cc2ncc(C(C)C)nc2NCCN2CCC2)c1` [Example 87, N-(2-(azetidin-1-yl)ethyl)-6-isopropyl-3-(3-methylbenzyl)pyrazin-2-amine], the IC50 (SSTR1) is reported as 3720 nM, the IC50 (SSTR4 [1]) is reported as 10.5 nM and the EC50 (SSTR4 [2]) is reported as 5.01 nM.
Work on `Cc1nc(NCCN2CCC2)c(Cc2ccc(F)cc2)nc1C#N` [Example 96, 5-((2-(azetidin-1-yl)ethyl)amino)-6-(4-fluorobenzyl)-3-methylpyrazine-2-carbonitrile] yielded an IC50 (SSTR1) of 11000 nM, an IC50 (SSTR4 [1]) of 61.7 nM and an EC50 (SSTR4 [2]) of 27.5 nM.
`CC(c1ccc(F)cc1)c1nccnc1NCCN1CCCC1` (stereo not drawn) [Example 119, 3-(1-(4-fluorophenyl)ethyl)-N-(2-(pyrrolidin-1-yl)ethyl)pyrazin-2-amine] was tested, and the IC50 (SSTR1) was 12000 nM, the IC50 (SSTR4 [1]) was 151 nM and the EC50 (SSTR4 [2]) was 8.71 nM.
`CC(c1ccc(F)cc1)c1nc(-c2ncco2)cnc1NCCN1CCCC1` (stereo not drawn) [Example 123, 3-(1-(4-fluorophenyl)ethyl)-5-(oxazol-2-yl)-N-(2-(pyrrolidin-1-yl)ethyl)pyrazin-2-amine] showed an IC50 (SSTR1) of 3310 nM, an IC50 (SSTR4 [1]) of 123 nM and an EC50 (SSTR4 [2]) of 20.9 nM.
Molecule `CC(c1ccc(F)cc1)c1nc(-c2nccn2C)cnc1NCCN1CCCC1` (stereo not drawn) [Example 124, 3-(1-(4-fluorophenyl)ethyl)-5-(1-methyl-1H-imidazol-2-yl)-N-(2-(pyrrolidin-1-yl)ethyl)pyrazin-2-amine] has an IC50 (SSTR1) of 3470 nM, an IC50 (SSTR4 [1]) of 245 nM and an EC50 (SSTR4 [2]) of 36.3 nM.
`CC(c1ccc(F)cc1)c1nc(-c2nccs2)cnc1NCCN1CCCC1` (stereo not drawn) [Example 125, 3-(1-(4-fluorophenyl)ethyl)-N-(2-(pyrrolidin-1-yl)ethyl)-5-(thiazol-2-yl)pyrazin-2-amine] gave an IC50 (SSTR1) of 1230 nM, an IC50 (SSTR4 [1]) of 38 nM and an EC50 (SSTR4 [2]) of 42.7 nM.
With `Cc1cnc(-c2cnc(NCCN3CCCC3)c(C(C)c3ccc(F)cc3)n2)o1` (stereo not drawn) [Example 126, 3-(1-(4-fluorophenyl)ethyl)-5-(5-methyloxazol-2-yl)-N-(2-(pyrrolidin-1-yl)ethyl)pyrazin-2-amine] the IC50 (SSTR1) was 2630 nM, the IC50 (SSTR4 [1]) was 110 nM and the EC50 (SSTR4 [2]) was 29.5 nM.
`Cc1cnc(-c2nc(C(C)c3ccc(F)cc3)c(NCCN3CCCC3)nc2C)o1` (stereo not drawn) [Example 129, 3-(1-(4-fluorophenyl)ethyl)-6-methyl-5-(5-methyloxazol-2-yl)-N-(2-(pyrrolidin-1-yl)ethyl)pyrazin-2-amine] was tested, and the IC50 (SSTR1) was 2290 nM, the IC50 (SSTR4 [1]) was 35.5 nM and the EC50 (SSTR4 [2]) was 10 nM.
Molecule `Cc1nnc(C(C)c2ccc(F)cc2)c(NCCN2CCC2)n1` (stereo not drawn) [Example 132, N-(2-(azetidin-1-yl)ethyl)-6-(1-(4-fluorophenyl)ethyl)-3-methyl-1,2,4-triazin-5-amine] has an IC50 (SSTR1) of 47900 nM, an IC50 (SSTR4 [1]) of 28.2 nM and an EC50 (SSTR4 [2]) of 1.95 nM.
Work on `Fc1ccc(Cc2nnc(C3CC3)nc2NCCN2CCC2)cc1` [Example 138, N-(2-(azetidin-1-yl)ethyl)-3-cyclopropyl-6-(4-fluorobenzyl)-1,2,4-triazin-5-amine] yielded an IC50 (SSTR1) of 5010 nM, an IC50 (SSTR4 [1]) of 89.1 nM and an EC50 (SSTR4 [2]) of 16.2 nM.
`Cc1nnc(C(C)c2ccccc2)c(NCCN2CCC2)n1` (stereo not drawn) [Example 143, N-(2-(azetidin-1-yl)ethyl)-3-methyl-6-(1-phenylethyl)-1,2,4-triazin-5-amine] was tested, and the IC50 (SSTR1) was 10000 nM, the IC50 (SSTR4 [1]) was 49 nM and the EC50 (SSTR4 [2]) was 4.27 nM.
`Cc1cccc(Cc2nnc(C)nc2NCCN2CCC2)c1` [Example 148, N-(2-(azetidin-1-yl)ethyl)-3-methyl-6-(3-methylbenzyl)-1,2,4-triazin-5-amine] was tested, and the IC50 (SSTR1) was 15100 nM, the IC50 (SSTR4 [1]) was 42.7 nM and the EC50 (SSTR4 [2]) was 10 nM.
